One may read the EC50 as the concentration giving half of the maximal effect. Usually viability stands for a read-out of living cells in per cent, often relative to untreated cells.

The source made the active and inactive calls.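 How the source made its calls: active means viability at the top tested dose under 50% of the solvent-only control; inactive means the rest.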

This is an account of results in PubChem BioAssay AID651653 (NMMLSC, 2012).

In assay [1] the test system is K562-ABCB6 viability, CellTiter-Glo luminescence, 18 h. As to the kind of experiment: viability loss, K562-ABCB6 cells – cell-based, CellTiter-Glo luminescence, cherry picks 01-02, cytotoxicity control for ABCB6 inhibitor project, dose response (AID 651653). For orientation: In ATP-based viability assays light output follows the ATP content of the culture.
Assay in assay [2]: as above
The settings on record: K562-ABCB6 viability, CellTiter-Glo luminescence, 18 h; at 100 µM (top of the series).

On to `Cc1cccc(C)c1NC(=O)c1nc(S(=O)(=O)Cc2ccccc2)ncc1Cl`, for which the EC50 in assay [1] was 2110 nM. Consider `Cc1ccc(CS(=O)(=O)c2ncc(Cl)c(C(=O)Nc3nnc(C(C)C)s3)n2)cc1`, for which the concentration giving a half-maximal response (EC50) in assay [1] was 3930 nM. As for `Cc1ccc(NC(=O)c2nc(S(=O)(=O)Cc3ccccc3)ncc2Cl)cc1`, the EC50 in assay [1] is 1800 nM. For the molecule `O=C(Nc1ccc(F)cc1)c1nc(S(=O)(=O)Cc2ccccc2)ncc1Cl`, the EC50 in assay [1] was 1540 nM.

Consider `CCc1ccc(NC(=O)c2nc(S(=O)(=O)Cc3ccccc3)ncc2Cl)cc1`, for which the EC50 in assay [1] is 1620 nM. On the same count and under the same terms, next, `CCOC(=O)c1ccc(NC(=O)c2nc(S(=O)(=O)Cc3ccccc3)ncc2Cl)cc1`: 1790 nM. As for `CCN(CC)S(=O)(=O)c1cccc(-n2c(O)c(C=Nc3ccccc3C(=O)O)c3ccccc3c2=O)c1`, the EC50 in assay [1] is 13100 nM. On the same count and under the same terms, next, `CC(=O)Nc1ccc(NC(=O)c2nc(S(=O)(=O)Cc3ccccc3)ncc2Cl)cc1`: 1190 nM. The same measure, in the same setting: next, `CCOc1ccccc1NC(=O)c1nc(S(=O)(=O)Cc2ccccc2)ncc1Cl`: 11800 nM.

Regarding `Cc1ccc(CS(=O)(=O)c2ncc(Cl)c(C(=O)Nc3ccc(OC(F)F)cc3)n2)cc1`, the concentration for a half-maximal effect (EC50) in assay [1] was 3540 nM. Still for that read-out and setting: the figure for `Cc1ccccc1CS(=O)(=O)c1ncc(Cl)c(C(=O)Nc2ccc(F)cc2)n1` is 7150 nM; for `Cc1cccc(CS(=O)(=O)c2ncc(Cl)c(C(=O)Nc3nnc(C(C)C)s3)n2)c1` it is 6520 nM. `Cc1ccc(NC(=O)c2nc(S(=O)(=O)Cc3ccccc3C)ncc2Cl)cc1C`: the EC50 in assay [1] was 1450 nM. For the molecule `COC(=O)c1ccc(NC(=O)c2nc(S(=O)(=O)Cc3cccc(C)c3)ncc2Cl)cc1`, in assay [1], the EC50 was 688 nM. Turning to `CC(=O)Nc1ccc(NC(=O)c2nc(S(=O)(=O)Cc3cccc(C)c3)ncc2Cl)cc1`, the EC50 in assay [1] was 1920 nM.

`CCCc1nnc(NC(=O)c2nc(S(=O)(=O)Cc3cccc(C)c3)ncc2Cl)s1`: the viability in assay [2] is 65.4% (inactive).

For the molecule `CCOc1ccccc1NC(=O)c1nc(S(=O)(=O)Cc2cccc(C)c2)ncc1Cl`, the EC50 in assay [1] is 1430 nM. As to `C[N+](C)(C)CC1CCCC(C[N+](C)(C)C)C1=O` (stereo not given), the EC50 in assay [1] was 245 nM. Still for that read-out and setting: next, `Cc1cccc(CS(=O)(=O)c2ncc(Cl)c(C(=O)Nc3ccc(F)cc3)n2)c1`: 1520 nM. Take `Cc1nnc(NC(=O)c2nc(S(=O)(=O)Cc3ccccc3)ncc2Cl)s1`: the EC50 in assay [1] is 811 nM.
